For 20 compounds, IC50 results are on record in patent US20230113037A1 (Bayer Aktiengesellschaft, priority 2019, published 2023).

Read-outs that look alike come from different tables or passages of the source.

Experiment [1] concerns the target T1, AHR (Homo sapiens, UniProt P35869).
T1 construct: U87 MG glioblastoma cells (ATCC #HTB-14) endogenously expressing AHR; endogenous in cells; host or cells: U87 MG glioblastoma cells (ATCC #HTB-14)
T1 sequence (P35869 11-848): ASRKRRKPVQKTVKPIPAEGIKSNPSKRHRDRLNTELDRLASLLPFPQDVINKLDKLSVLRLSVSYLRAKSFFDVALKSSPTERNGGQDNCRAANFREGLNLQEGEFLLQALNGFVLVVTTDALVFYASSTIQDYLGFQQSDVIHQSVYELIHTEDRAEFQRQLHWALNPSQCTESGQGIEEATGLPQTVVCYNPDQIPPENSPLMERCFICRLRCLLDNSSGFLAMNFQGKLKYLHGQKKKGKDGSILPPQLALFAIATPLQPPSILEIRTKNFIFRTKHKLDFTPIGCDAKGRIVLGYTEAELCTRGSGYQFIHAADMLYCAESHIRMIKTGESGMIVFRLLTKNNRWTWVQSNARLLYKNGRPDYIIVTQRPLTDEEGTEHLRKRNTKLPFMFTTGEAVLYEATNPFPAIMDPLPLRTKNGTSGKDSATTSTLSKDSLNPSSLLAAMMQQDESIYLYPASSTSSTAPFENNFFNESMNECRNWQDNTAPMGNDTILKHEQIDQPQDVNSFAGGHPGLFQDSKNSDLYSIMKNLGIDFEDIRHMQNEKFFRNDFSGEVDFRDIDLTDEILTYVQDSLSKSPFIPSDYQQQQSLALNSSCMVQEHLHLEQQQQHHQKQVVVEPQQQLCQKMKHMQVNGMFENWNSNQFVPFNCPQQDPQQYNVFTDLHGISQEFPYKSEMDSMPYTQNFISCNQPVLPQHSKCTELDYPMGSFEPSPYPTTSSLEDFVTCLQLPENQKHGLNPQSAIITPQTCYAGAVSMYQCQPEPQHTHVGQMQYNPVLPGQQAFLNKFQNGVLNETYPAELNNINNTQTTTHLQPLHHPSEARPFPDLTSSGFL
Kind of experiment: In vitro assay 1: antagonism in human cell line (AHR transactivation, firefly luciferase reporter, kynurenic acid prestimulated). It counts as cell-based. To be noted: AHR Antagonism Human IC50 [M]. In outline: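 Antagonism is measured against kynurenic acid prestimulation in U87 MG glioblastoma cells carrying stable DRE-luciferase and Renilla reporters. Positive inhibition control: 150 μM kynurenic acid with 5 μM staurosporine. Values are normalized to controls; repeats are averaged or given as medians.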
In general terms: In a reporter assay the amount or activity of a reporter protein is the signal.

Experiment [2] deals with T2, AHR (Mus musculus, UniProt P30561).
T2 sequence (P30561 1-848 P471L/N533S/M589L): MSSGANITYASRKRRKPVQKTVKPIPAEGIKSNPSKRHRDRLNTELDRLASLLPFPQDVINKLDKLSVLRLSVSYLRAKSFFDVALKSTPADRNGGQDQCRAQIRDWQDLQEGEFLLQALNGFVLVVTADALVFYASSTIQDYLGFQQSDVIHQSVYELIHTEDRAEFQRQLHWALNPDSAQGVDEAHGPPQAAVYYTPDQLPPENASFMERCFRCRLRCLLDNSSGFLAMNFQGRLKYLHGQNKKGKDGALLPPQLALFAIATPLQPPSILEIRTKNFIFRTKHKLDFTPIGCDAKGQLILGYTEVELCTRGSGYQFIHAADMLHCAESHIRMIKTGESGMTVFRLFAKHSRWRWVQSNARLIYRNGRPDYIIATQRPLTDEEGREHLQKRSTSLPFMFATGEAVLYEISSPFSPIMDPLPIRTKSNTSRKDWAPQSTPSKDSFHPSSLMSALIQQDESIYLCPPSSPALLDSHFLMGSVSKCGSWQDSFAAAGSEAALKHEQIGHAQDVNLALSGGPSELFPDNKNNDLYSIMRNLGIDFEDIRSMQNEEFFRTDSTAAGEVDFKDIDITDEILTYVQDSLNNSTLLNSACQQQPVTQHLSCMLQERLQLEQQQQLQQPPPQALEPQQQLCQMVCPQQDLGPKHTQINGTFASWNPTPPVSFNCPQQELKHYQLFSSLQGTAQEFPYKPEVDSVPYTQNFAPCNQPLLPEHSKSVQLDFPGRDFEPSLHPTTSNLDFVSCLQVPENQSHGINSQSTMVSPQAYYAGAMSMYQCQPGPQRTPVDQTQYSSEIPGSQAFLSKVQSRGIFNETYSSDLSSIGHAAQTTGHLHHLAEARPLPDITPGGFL
The experiment can be described thus: In vitro assay 3: antagonism in mouse cell line (AHR transactivation, firefly luciferase reporter, kynurenic acid prestimulated). It counts as cell-based. In outline: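 Luminescence from an AHR-dependent DRE-luciferase reporter, stably integrated in mouse cells, quantifies blockade of kynurenic acid-driven activation. Unstimulated cells mark maximal inhibition; normalization uses both control types, and multiply tested compounds carry mean or median values.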

Where [3] appears, read: mouse Hepa 1c1c7 cells, 200 μM kynurenic acid, 20 hours, read-out: AHR Antagonism Mouse IC50.
Where [4] appears, read: Hepa 1c1c7 cells, 200 μM kynurenic acid, 20 hours, firefly luciferase reporter, read-out: AHR Antagonism Mouse IC50.
[5] abbreviates: read-out: AHR Antagonism Mouse IC50, mouse Hepa 1c1c7 cells, 200 μM kynurenic acid, 20 hours.

On to `CC[C@@H](Nc1nc2ccccc2c2nc(-c3cc(C(F)(F)F)cc(C(F)(F)F)c3)nn12)C(N)=O` [Example 361, (2R)-2-({2-[3,5-bis(trifluoromethyl)phenyl][1,2,4]triazolo[1,5-c]quinazolin-5-yl}amino)butanamide], for which the IC50 was greater than 2e-05 M against AHR [1] and 0.0668 µM at AHR [2] (setting [3]).
In the same order, the values of `O=C1NCCCC[C@H]1Nc1nc2ccccc2c2nc(-c3cnn(C4COC4)c3)nn12` [Example 595, (3R)-3-({2-[1-(oxetan-3-yl)-1H-pyrazol-4-yl][1,2,4]triazolo[1,5-c]quinazolin-5-yl}amino)azepan-2-one] are 5.18e-08 M and 0.034 µM.
For the compound `Cc1cc(-c2nc3c4ccccc4nc(N[C@@H]4CCCNC4=O)n3n2)cs1` [Example 354, (3R)-3-{[2-(5-methylthiophen-3-yl)[1,2,4]triazolo[1,5-c]quinazolin-5-yl]amino}piperidin-2-one], the values for the IC50 against AHR [1] and on AHR [2] (setting [3]) were 4.05e-08 M and 0.0782 µM, respectively.
The corresponding values for `O=C1NCCNC[C@H]1Nc1nc2c(C(F)(F)F)cccc2c2nc(-c3cccc(F)c3)nn12` [Example 424, (6R)-6-{[2-(3-fluorophenyl)-7-(trifluoromethyl)[1,2,4]triazolo[1,5-c]quinazolin-5-yl]amino}-1,4-diazepan-5-one] are 5.89e-10 M and 0.00169 µM.
In the same order, the values of `COc1ccc(-c2nc3c4cc(C)ccc4nc(N[C@@H]4CCCCNC4=O)n3n2)cc1` [Example 241, (3R)-3-{[2-(4-methoxyphenyl)-9-methyl[1,2,4]triazolo[1,5-c]quinazolin-5-yl]amino}azepan-2-one] are 1.27e-09 M and 0.00193 µM.
Consider `COc1cccc(-c2nc3c4ccccc4nc(N[C@H](Cc4ccccc4)C(N)=O)n3n2)c1` [Example 90, N^2-[2-(3-methoxyphenyl)[1,2,4]triazolo[1,5-c]quinazolin-5-yl]-D-phenylalaninamide], for which the IC50 turned out to be 4.54e-09 M against AHR [1] and 0.00634 µM on AHR [2] (setting [3]).
As to `CCn1cc(-c2nc3c4cccc(F)c4nc(N[C@@H]4CNCCNC4=O)n3n2)cn1` [Example 961, (6R)-6-{[2-(1-ethyl-1H-pyrazol-4-yl)-7-fluoro-[1,2,4]triazolo[1,5-c]quinazolin-5-yl]amino}1-4,-diazepan-5-one], the IC50 against AHR [1] (firefly luciferase reporter) was determined as 7.95e-07 M; at AHR [2] (setting [4]) it was 0.272 µM.
Consider `Cn1cc(-c2nc3c4cccc(Br)c4nc(N[C@H]4CCCCNC4=O)n3n2)cn1` [Example 580, (3S)-3-{[7-bromo-2-(1H-methyl-1H-pyrazol-4-yl)[1,2,4]triazolo[1,5-c]quinazolin-5-yl]amino}azepan-2-one], for which the IC50 at AHR [1] came to 5.4e-08 M; on AHR [2] (setting [3]), 0.0614 µM.
`COc1ccc(-c2nc3c4cccc(Br)c4nc(N[C@H](C)C(=O)N4CC5(CN(C(=O)OC(C)(C)C)C5)C4)n3n2)cc1` [Example 920, tert-butyl 6-{N-[7-bromo-2-(4-methoxyphenyl)[1,2,4]triazolo[1,5-c]quinazolin-5-yl]-D-alanyl}-2,6-diazaspiro[3.3]heptane-2-carboxylate]: the IC50 on AHR [1] (firefly luciferase reporter) came to 7.45e-09 M; on AHR [2] (setting [4]), 0.011 µM.
`CC[C@@H](Nc1nc2c(Br)cccc2c2nc(-c3ccc(Cl)cc3OC(F)(F)F)nn12)C(N)=O` [Example 573, (2R)-2-({7-bromo-2-[4-chloro-2-(trifluoromethoxy)phenyl][1,2,4]triazolo[1,5-c]quinazolin-5-yl}amino)butanamide]: the IC50 against AHR [1] was 3.36e-09 M; on AHR [2] (setting [3]), 0.00139 µM.
The corresponding values for `CS(=O)(=O)c1ccc(-c2nc3c4ccccc4nc(N[C@H]4CCCCNC4=O)n3n2)cc1` [Example 375, (3S)-3-({2-[4-(methanesulfonyl)phenyl][1,2,4]triazolo[1,5-c]quinazolin-5-yl}amino)azepan-2-one] are 7.95e-07 M and 0.0306 µM.
Consider `O=C1NCCCC[C@H]1Nc1nc2ccccc2c2nc(-c3cncc(F)c3)nn12` [Example 479, (3R)-3-{[2-(5-fluoropyridin-3-yl)[1,2,4]triazolo[1,5-c]quinazolin-5-yl]amino}azepan-2-one], for which the IC50 at AHR [1] stood at 3.53e-08 M; at AHR [2] (setting [5]), 0.0332 µM.
With `Cc1c(-c2nc3c4ccccc4nc(N[C@@H]4CCCCNC4=O)n3n2)cnn1C` [Example 68, (3R)-3-{[2-(1,5-dimethyl-1H-pyrazol-4-yl)[1,2,4]triazolo[1,5-c]quinazolin-5-yl]amino}azepan-2-one], the IC50 is 1.03e-08 M against AHR [1] and 0.00857 µM at AHR [2] (setting [5]).
Take `Cc1cc(-c2nc3c4ccccc4nc(N[C@@H]4CCCCNC4=O)n3n2)c(C)n1C` [Example 606, (3R)-3-{[2-(1,2,5-trimethyl-H-pyrrol-3-yl)[1,2,4]triazolo[1,5-c]quinazolin-5-yl]amino}azepan-2-one]: the IC50 is 9.02e-09 M on AHR [1] and 0.00308 µM at AHR [2] (setting [3]).
For `Cc1nn(C)cc1-c1nc2c3cccc(C(F)(F)F)c3nc(N[C@@H]3CNCCNC3=O)n2n1` [Example 975, (6R)-6-{[2-(1,3-dimethyl-1H-pyrazol-4-yl)-7-(trifluoromethyl)[1,2,4]triazolo[1,5-c]quinazolin-5-yl]amino}-1,4-diazepan-5-one], the IC50 on AHR [1] (firefly luciferase reporter) amounted to 8.67e-10 M; at AHR [2] (setting [4]), 0.00424 µM.
On to `O=C1NCCNC[C@@H]1Nc1nc2c(Br)cccc2c2nc(-c3cnn(C4CC4)c3)nn12` [Example 953, (6S)-6-{[7-bromo-2-(1-cyclopropyl-1H-pyrazol-4-yl)[1,2,4]triazolo[1,5-c]quinazolin-5-yl]amino}-1,4-diazepan-5-one], for which the IC50 on AHR [1] (firefly luciferase reporter) turned out to be 2.14e-08 M; at AHR [2] (read-out: AHR Antagonism Mouse IC50, Hepa 1c1c7 cells, 200 μM kynurenic acid, 20 hours, firefly luciferase reporter), 0.0149 µM.
Take `O=C1NCCCC[C@@H]1Nc1nc2ccccc2c2nc(-c3cc(Br)ccc3OC(F)(F)F)nn12` [Example 506, (3S)-3-({2-[5-bromo-2-(trifluoromethoxy)phenyl][1,2,4]triazolo[1,5-c]quinazolin-5-yl}amino)azepan-2-one]: the values for the IC50 at AHR [1] and on AHR [2] (setting [3]) were greater than 2e-05 M and greater than 20 µM, respectively.
The corresponding values for `COc1ccc2nc(N[C@@H]3CCCCNC3=O)n3nc(-c4ccc(F)cc4)nc3c2c1` [Example 239, (3R)-3-{[2-(4-fluorophenyl)-9-methoxy[1,2,4]triazolo[1,5-c]quinazolin-5-yl]amino}azepan-2-one] are 8.92e-09 M and 0.0102 µM.
In the case of `Cc1cc(-c2nc3c4ccccc4nc(N[C@@H]4CCCCNC4=O)n3n2)n[nH]1` [Example 64, (3R)-3-{[2-(5-methyl-1H-pyrazol-3-yl)[1,2,4]triazolo[1,5-c]quinazolin-5-yl]amino}azepan-2-one], the IC50 on AHR [1] is 6.33e-08 M; at AHR [2] (setting [3]), 0.085 µM.
In the same order, the values of `O=C1NCCNC[C@H]1Nc1nc2c(Br)cccc2c2nc(-c3cccc(F)c3)nn12` [Example 268, (6R)-6-{[7-bromo-2-(3-fluorophenyl)[1,2,4]triazolo[1,5-c]quinazolin-5-yl]amino}-1,4-diazepan-5-one] are 6.36e-09 M and 0.00307 µM.

Usually IC50 stands for the concentration that gives 50% inhibition.
